Data: the supplement of paper PMC10307832

Key:
Assay in all cases: relative viability (nuclei count vs DMSO), 5 days (fraction); higher = more cells survive
Seliciclib + Phenformin = compound: CC[C@H](CO)Nc1nc(NCc2ccccc2)c2ncn(C(C)C)c2n1 [Seliciclib] + N=C(N)NC(=N)NCCc1ccccc1 [Phenformin] (partner 250 µM)
Method in brief: (§1)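 Each reported value is a median over duplicate plates. It expresses relative viability: treated-well nuclei count divided by vehicle-well nuclei count. Lung cancer cell lines in 1536-well plates were dosed by pin tool a day after seeding, alone with one drug or with a fixed anchor-drug dose plus five library-drug doses (not always all listed) in √10 steps, and nuclei were counted after 5 days.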

Seliciclib + Pictilisib = compound: CC[C@H](CO)Nc1nc(NCc2ccccc2)c2ncn(C(C)C)c2n1 [Seliciclib] + CS(=O)(=O)N1CCN(Cc2cc3nc(-c4cccc5[nH]ncc45)nc(N4CCOCC4)c3s2)CC1 [Pictilisib] (partner 1 µM)
Method in brief: as §1

Seliciclib + Palbociclib = compound: CC[C@H](CO)Nc1nc(NCc2ccccc2)c2ncn(C(C)C)c2n1 [Seliciclib] + CC(=O)c1c(C)c2cnc(Nc3ccc(N4CCNCC4)cn3)nc2n(C2CCCC2)c1=O [Palbociclib] (partner 0.5 µM)
Method in brief: as §1

Seliciclib + Decitabine = compound: CC[C@H](CO)Nc1nc(NCc2ccccc2)c2ncn(C(C)C)c2n1 [Seliciclib] + Nc1ncn([C@H]2C[C@H](O)[C@@H](CO)O2)c(=O)n1 [Decitabine] (partner 2 µM)
Method in brief: as §1

Cell Line	relative viability (Seliciclib + Phenformin; first compound 0.08 µM)	relative viability (Seliciclib + Phenformin; first compound 0.253 µM)	relative viability (Seliciclib + Phenformin; first compound 0.8 µM)	relative viability (Seliciclib + Phenformin; first compound 2.53 µM)	relative viability (Seliciclib + Phenformin; first compound 8 µM)	relative viability (Seliciclib + Pictilisib; first compound 0.08 µM)	relative viability (Seliciclib + Pictilisib; first compound 0.253 µM)	relative viability (Seliciclib + Pictilisib; first compound 0.8 µM)	relative viability (Seliciclib + Pictilisib; first compound 2.53 µM)	relative viability (Seliciclib + Pictilisib; first compound 8 µM)	relative viability (Seliciclib + Palbociclib; first compound 0.08 µM)	relative viability (Seliciclib + Palbociclib; first compound 0.253 µM)	relative viability (Seliciclib + Palbociclib; first compound 0.8 µM)	relative viability (Seliciclib + Palbociclib; first compound 2.53 µM)	relative viability (Seliciclib + Palbociclib; first compound 8 µM)	relative viability (Seliciclib + Decitabine; first compound 0.08 µM)	relative viability (Seliciclib + Decitabine; first compound 0.253 µM)	relative viability (Seliciclib + Decitabine; first compound 0.8 µM)	relative viability (Seliciclib + Decitabine; first compound 2.53 µM)	relative viability (Seliciclib + Decitabine; first compound 8 µM)
NCI-H1993	0.551	0.54	0.496	0.474	0.456	0.816	0.703	0.847	0.777	0.847	0.699	0.567	0.533	0.547	0.423	0.62	0.549	0.632	0.54	0.441
NCI-H838	0.59	0.559	0.561	0.461	0.329	0.469	0.468	0.432	0.408	0.294	0.216	0.257	0.211	0.169	0.197	0.457	0.508	0.437	0.411	0.381
NCI-H1437	0.347	0.353	0.291	0.241	0.262	0.484	0.377	0.439	0.394	0.331	0.323	0.324	0.298	0.221	0.223	0.557	0.563	0.566	0.477	0.56
NCI-H1793	0.378	0.307	0.378	0.32	0.227	0.282	0.339	0.317	0.32	0.294	0.28	0.258	0.289	0.289	0.224	0.496	0.47	0.477	0.539	0.529
LCLC-103H	0.393	0.337	0.347	0.308	0.316	0.819	0.673	0.627	0.434	0.576	0.524	0.51	0.486	0.469	0.423	0.781	0.727	0.755	0.735	0.644
NCI-H441	0.836	0.804	0.805	0.459	0.632	0.49	0.635	0.531	0.469	0.377	0.199	0.217	0.203	0.144	0.14	0.262	0.265	0.258	0.201	0.256
SK-LU-1	0.532	0.582	0.647	0.435	0.413	0.615	0.641	0.762	0.556	0.526	0.408	0.389	0.403	0.346	0.313	0.614	0.544	0.649	0.614	0.542
BEN	0.268	0.249	0.125	0.284	0.227	0.596	–	0.549	0.675	0.545	0.476	0.469	0.473	0.499	0.453	0.738	0.739	0.761	0.698	0.622
